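Results reflect a 48-hour exposure of cells in 96-well plates to compound at five concentrations. Here, GI50 denotes the concentration required for 50% inhibition of growth. TGI: concentration producing complete growth inhibition.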
Key:
Assay in all cases: NCI tumour cell line growth inhibition, 48 h
[1] = test system: UACC-257 melanoma
[2] = test system: HS 578T breast
[3] = test system: A549 NSCLC
[4] = test system: SR leukemia
[5] = test system: SK-OV-3 ovarian
[6] = test system: PC-3 prostate
[7] = test system: EKVX NSCLC
[8] = test system: ACHN renal
[9] = test system: OVCAR-5 ovarian
[10] = test system: SW-620 colon
[11] = test system: HOP-62 NSCLC
[12] = test system: MDA-MB-435
[13] = test system: RXF 393 renal
[14] = test system: UO-31 renal
[15] = test system: SK-MEL-5 melanoma
[16] = test system: UACC-62 melanoma
[17] = test system: M14 melanoma
[18] = test system: A498 renal
[19] = test system: MDA-MB-231 breast
[20] = test system: BT-549 breast
[21] = test system: HL-60(TB) leukemia
[22] = test system: NCI-H522 lung
[23] = test system: SK-MEL-28 melanoma
[24] = test system: NCI-H226 lung
[25] = test system: NCI-H460 lung
[26] = test system: SK-MEL-2 melanoma
[27] = test system: HCC-2998 colon
[28] = test system: NCI/ADR-RES ovarian
[29] = test system: MOLT-4 leukemia
[30] = test system: COLO 205 colon
[31] = test system: KM12 colon
[32] = test system: OVCAR-3 ovarian
[33] = test system: SF-268 CNS
[34] = test system: SF-539 CNS
[35] = test system: OVCAR-4 ovarian
[36] = test system: NCI-H23 lung
[37] = test system: MALME-3M melanoma
[38] = test system: HCT-15 colon
[39] = test system: T-47D breast
[40] = test system: IGROV1 ovarian
[41] = test system: SNB-75 CNS
[42] = test system: U251 CNS
[43] = test system: LOX IMVI melanoma
[44] = test system: SNB-19 CNS
[45] = test system: DU-145 prostate
[46] = test system: OVCAR-8 ovarian
[47] = test system: RPMI-8226 leukemia
[48] = test system: HT29 colon
[49] = test system: SN12C renal
[50] = test system: SF-295 CNS
[51] = test system: K-562 leukemia
[52] = test system: CCRF-CEM leukemia
[53] = test system: TK-10 renal

`C#C[C@@]1(O)[C@@H](CO)O[C@@H](n2cc(F)c3c(N)ncnc32)[C@@H]1O` gave a GI50 [1] of 487 nM, a TGI [1] of 4640 nM and a GI50 [2] of 3970 nM. The TGI [2] was greater than 100000 nM, the GI50 [3] was 377 nM and the TGI [3] was 2640 nM. The GI50 [4] was 185 nM, the TGI [4] was greater than 100000 nM and the GI50 [5] was 285 nM. For the same compound, the TGI [5] was 2090 nM, the GI50 [6] was 293 nM and the TGI [6] was 3240 nM. For the same compound, the GI50 [7] was 675 nM, the TGI [7] was 11300 nM and the GI50 [8] was 240 nM. The TGI [8] was greater than 100000 nM, the GI50 [9] was 1780 nM and the TGI [9] was greater than 100000 nM. For the same compound, the GI50 [10] was 159 nM, the TGI [10] was 2900 nM and the GI50 [11] was 571 nM. It also gave a TGI [11] of 7790 nM, a GI50 [12] of 416 nM and a TGI [12] of 3260 nM. For the same compound, the GI50 [13] was 727 nM, the TGI [13] was 2990 nM and the GI50 [14] was 470 nM. The TGI [14] was 2480 nM, the GI50 [15] was 267 nM and the TGI [15] was 1330 nM. The GI50 [16] was 331 nM, the TGI [16] was 1470 nM and the GI50 [17] was 481 nM. It also gave a TGI [17] of 2390 nM, a GI50 [18] of 725 nM and a TGI [18] of 2270 nM. It also gave a GI50 [19] of 379 nM, a TGI [19] of 2980 nM and a GI50 [20] of 843 nM. The TGI [20] was 4180 nM, the GI50 [21] was 436 nM and the TGI [21] was 3530 nM. The GI50 [22] was 180 nM, the TGI [22] was 929 nM and the GI50 [23] was 4260 nM. It also gave a TGI [23] greater than 100000 nM, a GI50 [24] of 521 nM and a TGI [24] of 2630 nM. It also gave a GI50 [25] of 231 nM, a TGI [25] of 10200 nM and a GI50 [26] of 446 nM. The TGI [26] was 2870 nM, the GI50 [27] was 600 nM and the TGI [27] was 2820 nM. For the same compound, the GI50 [28] was 306 nM, the TGI [28] was 11300 nM and the GI50 [29] was 304 nM. For the same compound, the TGI [29] was greater than 100000 nM, the GI50 [30] was 263 nM and the TGI [30] was 1300 nM. The GI50 [31] was 502 nM, the TGI [31] was 24900 nM and the GI50 [32] was 1110 nM. For the same compound, the TGI [32] was greater than 100000 nM, the GI50 [33] was 751 nM and the TGI [33] was 78300 nM. It also gave a GI50 [34] of 1310 nM, a TGI [34] of 5290 nM and a GI50 [35] of 1010 nM. It also gave a TGI [35] of 8670 nM, a GI50 [36] of 398 nM and a TGI [36] of 6850 nM. The GI50 [37] was 362 nM, the TGI [37] was 1810 nM and the GI50 [38] was 297 nM. The TGI [38] was 3190 nM, the GI50 [39] was 214 nM and the TGI [39] was 770 nM. For the same compound, the GI50 [40] was 324 nM, the TGI [40] was 1420 nM and the GI50 [41] was 1030 nM. It also gave a TGI [41] of 2320 nM, a GI50 [42] of 631 nM and a TGI [42] of 11600 nM. The GI50 [43] was 279 nM, the TGI [43] was 1110 nM and the GI50 [44] was 524 nM. The TGI [44] was 13700 nM, the GI50 [45] was 354 nM and the TGI [45] was 13400 nM. The GI50 [46] was 256 nM, the TGI [46] was 3690 nM and the GI50 [47] was 221 nM. It also gave a TGI [47] of 1980 nM, a GI50 [48] of 207 nM and a TGI [48] greater than 100000 nM. The GI50 [49] was 302 nM, the TGI [49] was 4740 nM and the GI50 [50] was 653 nM. The TGI [50] was 2330 nM, the GI50 [51] was 285 nM and the TGI [51] was greater than 100000 nM. It also gave a GI50 [52] of 338 nM, a TGI [52] greater than 100000 nM and a GI50 [53] of 736 nM. It also gave a TGI [53] of 6560 nM.

From PubChem BioAssay (NCI)
